Measured values reported in article PMC9332802, “Structure–Activity Relationship of New Chimeric Analogs of Mastoparan from the Wasp Venom Paravespula lewisii” (International Journal of Molecular Sciences, 2022).
Converted amounts (≈) assume the structure as drawn. “And” between values parts separate entries of the source, which are not always exact repeats. Equal entries are not always repeated. Where two headings read alike, the source gives them in different places. Ends that are not written are not given here.

Tests used:
[1] = Circular dichroism spectroscopy, relative α-helix fraction; type: physicochemical; conditions: CD, peptide 0.15 mg/mL, 25 °C, three scans averaged; for Relative α-helix fraction (fH), 0.1 M Tris + 50 mM SDS: 0.1 M Tris buffer pH 7.01 + 50 mM SDS, from mean residue ellipticity at 222 nm; for Relative α-helix fraction (fH), 50% TFE / Relative α-helix fraction (fH), water: from mean residue ellipticity at 222 nm (Rohl and Baldwin)
Experimental: Circular dichroism spectroscopy was applied to evaluate the conformational changes of peptides induced by membrane-mimetic environments. The secondary structures of MP and some of its MP analogs (Table 4) were determined in water, 50% 2,2,2-trifluoroethanol (TFE) and 0.1 M Tris buffer with the addition of 50 mM SDS. The relative α-helix fraction (fH) values presented in Table 4, calculated from the values of mean residue ellipticity at 222 nm, reflect the ability of peptides to adopt helical structure in the tested environments.
Circular dichroism (CD) spectra of peptides were recorded on a Jasco J-815 spectropolarimeter (Jasco Int. Co., Ltd., Tokyo, Japan). The CD spectra were acquired for peptides in a concentration of 0.15 mg/mL in water, 50% 2,2,2-trifluoroethanol (TFE) or 0.1 M tris(hydroxymethyl)aminomethane (Tris) buffer (pH 7.01) with the addition of 50 mM SDS (sodium dodecylsulphate) in 0.1 cm path length cuvettes. Measurements were taken at 25 °C in a spectral range of 193–260 nm with a bandwidth of 1 nm and response of 1 s. The spectra were averaged after three scans. Ellipticity was measured in mdeg units and converted to mean residue ellipticity (Θ). The relative helix content (fH) was calculated from the mean residue ellipticity values at 222 nm using the method proposed by Rohl and Baldwin [50] and described previously. Helical wheel projections (Figure 3) were made with HeliQuest https://heliquest.ipmc.cnrs.fr/ (accessed on 1 June 2022).

[2] = system: Pseudomonas aeruginosae NCTC 6749; assay: microbe, parasite or virus in culture; type: cell-based; conditions: for MIC P. aeruginosae: broth microdilution (CLSI), Mueller–Hinton broth, 37 °C, peptide 0.125 to […], no visible growth, triplicate
Experimental: (§1) Antimicrobial activity of peptides was examined against three reference strains: Staphylococcus aureus NCTC 4163, Escherichia coli NCTC 8196 and Pseudomonas aeruginosae NCTC 6749 dedicated for the determination of antibacterial activity. The bacterial strains were stored in glycerol stock (Sigma-Aldrich, St. Louis, MO, USA) at −80 °C. Before testing, the strains were cultured aerobically in Tryptic Soy Agar (BD DIFCO, Franklin Lakes, NJ, USA) at 37 °C for 20 h. The susceptibility of microorganisms to the peptides was determined by the broth microdilution assay according to the procedures outlined by CLSI [49]. […] In order to prepare the bacterial suspension, an overnight culture of bacteria in Tryptic Soy Broth (BD DIFCO, Franklin Lakes, NJ, USA) was diluted in sterile saline to a final concentration of approximately 10^7 CFU/mL of bacteria. Aliquots (5 µL) of bacterial suspension were added to each peptide solution. The sterility control (containing the tested peptide in broth) and the growth control (containing the reference strain in broth without the tested peptide) were also set up. The plates were incubated at 37 °C under aerobic conditions. The results are expressed as the minimal inhibitory concentration (MIC) of the compounds in question. The MIC was defined as the lowest concentration at which no visible growth of bacteria (no turbidity) was observed. The assay was performed in triplicate.

[3] = system: Escherichia coli NCTC 8196; assay: microbe, parasite or virus in culture; type: cell-based; conditions: for MIC E. coli: peptide 0.125 to […], no visible growth
Experimental: as §1

[4] = system: Staphylococcus aureus NCTC 4163; assay: microbe, parasite or virus in culture; type: cell-based; conditions: for MIC S. aureus: peptide 0.125 to […], no visible growth; for MIC: read-out: MIC S. aureus
Experimental: as §1

[5] = broth microdilution (CLSI), Mueller–Hinton broth, 37 °C, triplicate
[6] = same MIC expressed as molar concentration, broth microdilution (CLSI), Mueller–Hinton broth, 37 °C, triplicate

Molecule: INLKALAALAKKILLIKKALAALAKLNI-NH2 [MP-retroMP]
- Relative α-helix fraction (fH), 0.1 M Tris + 50 mM SDS [1]: 0.17
- Relative α-helix fraction (fH), 50% TFE [1]: 0.23–0.24 and 0.24
- Relative α-helix fraction (fH), water [1]: 0.04
- MIC P. aeruginosae [2]: >256 µg/mL
- MIC E. coli [3, 5]: >256 µg/mL
- MIC S. aureus [4, 5]: >256 µg/mL

Molecule: CC[C@H](C)[C@H](N)C(=O)N[C@@H](CC(N)=O)C(=O)N[C@@H](CC(C)C)C(=O)N[C@@H](CCCCN)C(=O)N[C@@H](C)C(=O)N[C@@H](CC(C)C)C(=O)N[C@@H](C)C(=O)N[C@@H](C)C(=O)N[C@@H](CC(C)C)C(=O)N[C@@H](C)C(=O)N[C@@H](CCCCN)C(=O)N[C@@H](CCCCN)C(=O)N[C@H](C(=O)N[C@@H](CC(C)C)C(N)=O)[C@@H](C)CC [MP, mastoparan]
- MIC P. aeruginosae [2]: 256 µg/mL (≈ 173 µM)
- MIC [3, 6]: 21.6 µM
- MIC [4, 6]: 5.4 µM

Molecule: KALAALAKKIL-NH2 [MP (4–14)]
- MIC P. aeruginosae [2]: >256 µg/mL

Molecule: CC[C@H](C)[C@H](NC(=O)[C@H](CCCCN)NC(=O)[C@H](CCCCN)NC(=O)[C@H](C)NC(=O)[C@H](CC(C)C)NC(=O)[C@H](C)NC(=O)[C@H](C)NC(=O)[C@H](CC(C)C)NC(=O)[C@H](C)NC(=O)[C@H](CCCCN)NC(=O)[C@H](CC(C)C)NC(=O)[C@H](CC(N)=O)NC(=O)[C@@H](NC(=O)[C@H](CCCCN)NC(=O)CNC(=O)[C@H](CC(C)C)NC(=O)[C@H](CC(C)C)NC(=O)[C@H](Cc1ccc(O)cc1)NC(=O)CNC(=O)[C@H](C)NC(=O)[C@H](CO)NC(=O)[C@H](CC(N)=O)NC(=O)[C@H](CC(C)C)NC(=O)[C@@H](NC(=O)[C@H](Cc1c[nH]c2ccccc12)NC(=O)CN)[C@@H](C)O)[C@@H](C)CC)C(=O)N[C@@H](CC(C)C)C(N)=O [TP, transportan, reference compound]
- MIC P. aeruginosae [2]: >256 µg/mL

Molecule: CC[C@H](C)[C@H](NC(=O)[C@H](CCCCN)NC(=O)CNC(=O)[C@H](CC(C)C)NC(=O)[C@H](CC(C)C)NC(=O)[C@H](Cc1ccc(O)cc1)NC(=O)CNC(=O)[C@H](C)N)C(=O)N[C@@H](CC(N)=O)C(=O)N[C@@H](CC(C)C)C(=O)N[C@@H](CCCCN)C(=O)N[C@@H](C)C(=O)N[C@@H](CC(C)C)C(=O)N[C@@H](C)C(=O)N[C@@H](C)C(=O)N[C@@H](CC(C)C)C(=O)N[C@@H](C)C(=O)N[C@@H](CCCCN)C(=O)N[C@@H](CCCCN)C(=O)N[C@H](C(=O)N[C@@H](CC(C)C)C(=O)N[C@@H](Cc1ccc(O)cc1)C(=O)N[C@@H](CO)C(=O)N1CCC[C@H]1C(=O)N[C@@H](Cc1c[nH]c2ccccc12)C(=O)N[C@H](C(=O)N[C@@H](CC(N)=O)C(=O)N[C@@H](Cc1ccccc1)C(N)=O)[C@@H](C)O)[C@@H](C)CC [TP10-RIP]
- Relative α-helix fraction (fH), 0.1 M Tris + 50 mM SDS [1]: 0.25
- Relative α-helix fraction (fH), 50% TFE [1]: 0.27
- Relative α-helix fraction (fH), water [1]: 0.08
- MIC P. aeruginosae [2]: >256 µg/mL
- MIC E. coli [3, 5]: >256 µg/mL
- MIC S. aureus [4, 5]: 128 µg/mL (≈ 41.6 µM)

Molecule: KALAALAKKILYSPWTNF-NH2 [MP (4–14)-RIP]
- MIC P. aeruginosae [2]: >256 µg/mL

Molecule: YKPITNF-NH2 [[Lys^2, Ile^4] RIP, reference compound]
- MIC P. aeruginosae [2]: >256 µg/mL

Molecule: AGYLLGINLKALAALAKKILYKPITNF-NH2 [[desLys^7] TP10-[Lys^2, Ile^4] RIP]
- MIC P. aeruginosae [2]: >256 µg/mL

Molecule: CC[C@H](C)[C@H](NC(=O)[C@H](CCCCN)NC(=O)[C@H](CCCCN)NC(=O)[C@H](C)NC(=O)[C@H](CC(C)C)NC(=O)[C@H](C)NC(=O)[C@H](C)NC(=O)[C@H](CC(C)C)NC(=O)[C@H](C)NC(=O)[C@H](CCCCN)NC(=O)[C@H](CC(C)C)NC(=O)[C@H](CC(N)=O)NC(=O)[C@@H](NC(=O)[C@H](CCCCNC(=O)Cn1cnc2ccccc21)NC(=O)CNC(=O)[C@H](CC(C)C)NC(=O)[C@H](CC(C)C)NC(=O)[C@H](Cc1ccc(O)cc1)NC(=O)CNC(=O)[C@H](C)N)[C@@H](C)CC)C(=O)N[C@@H](CC(C)C)C(N)=O [[Lys^7 (BnzAc)] TP10]
- MIC P. aeruginosae [2]: >256 µg/mL
- MIC E. coli [3, 5]: >256 µg/mL
- MIC S. aureus [4, 5]: 256 µg/mL (≈ 109 µM)

Molecule: GWTLNSAGYLLGPINLKALAALAKKIL-NH2 [Galp, galparan, reference compound]
- MIC P. aeruginosae [2]: >256 µg/mL

Molecule: CC[C@H](C)[C@H](NC(=O)[C@H](CCCCN)NC(=O)[C@H](CCCCN)NC(=O)[C@H](C)NC(=O)[C@H](CC(C)C)NC(=O)[C@H](C)NC(=O)[C@H](C)NC(=O)[C@H](CC(C)C)NC(=O)[C@H](C)NC(=O)[C@H](CCCCN)NC(=O)[C@H](CC(C)C)NC(=O)[C@H](CC(N)=O)NC(=O)[C@@H](NC(=O)[C@H](CCCCNC(=O)Cn1c(-c2ccccc2Cl)nc2ccccc21)NC(=O)CNC(=O)[C@H](CC(C)C)NC(=O)[C@H](CC(C)C)NC(=O)[C@H](Cc1ccc(O)cc1)NC(=O)CNC(=O)[C@H](C)N)[C@@H](C)CC)C(=O)N[C@@H](CC(C)C)C(N)=O [[Lys^7 (ClBnzAc)] TP10]
- MIC P. aeruginosae [2]: >256 µg/mL
- MIC E. coli [3, 5]: >256 µg/mL
- MIC S. aureus [4, 5]: >256 µg/mL

Molecule: YKPITNFINLKALAALAKKIL-NH2 [[Lys^2, Ile^4] RIP-MP]
- MIC P. aeruginosae [2]: >256 µg/mL

Molecule: CNC(C)C1CCC(N)C(OC2C(N)CC(N)C(OC3OCC(C)(O)C(NC)C3O)C2O)O1 (stereo not drawn) [Gentamicin, gentamicin, reference compound]
- MIC ([2]; Pseudomonas, NCTC6749, read-out: MIC P. aeruginosae): 0.25 µg/mL (≈ 0.523 µM)
- MIC ([3]; Escherichia coli, NCTC8196): 1 µg/mL
- MIC ([3]; Escherichia coli, NCTC8196, same MIC expressed as molar concentration, broth microdilution (CLSI), Mueller–Hinton broth, 37 °C, triplicate): 2.1 µM
- MIC ([4]; Staphylococcus aureus, NCTC4163): 0.5 µg/mL
- MIC ([4]; Staphylococcus aureus, NCTC4163, same MIC expressed as molar concentration, broth microdilution (CLSI), Mueller–Hinton broth, 37 °C, triplicate): 1.1 µM

Molecule: INLKALAALAKKILYKPITNF-NH2 [MP-[Lys^2, Ile^4] RIP]
- MIC P. aeruginosae [2]: >256 µg/mL

Molecule: CC[C@H](C)[C@H](NC(=O)[C@H](CCCCN)NC(=O)[C@H](CCCCN)NC(=O)[C@H](C)NC(=O)[C@H](CC(C)C)NC(=O)[C@H](C)NC(=O)[C@H](C)NC(=O)[C@H](CC(C)C)NC(=O)[C@H](C)NC(=O)[C@H](CCCCN)NC(=O)[C@H](CC(C)C)NC(=O)[C@H](CC(N)=O)NC(=O)[C@@H](NC(=O)[C@H](CCCCN)NC(=O)CNC(=O)[C@H](CC(C)C)NC(=O)[C@H](CC(C)C)NC(=O)[C@H](Cc1ccc(O)cc1)NC(=O)CNC(=O)[C@H](C)N)[C@@H](C)CC)C(=O)N[C@@H](CC(C)C)C(N)=O [TP10, transportan 10, reference compound]
- MIC P. aeruginosae [2]: 256 µg/mL (≈ 117 µM)

Molecule: KALAALAKKILYKPITNF-NH2 [MP (4–14)-[Lys^2, Ile^4] RIP]
- MIC P. aeruginosae [2]: >256 µg/mL

Molecule: CCCCCCCCCc1nc2ccccc2n1CC(=O)NCCCC[C@H](NC(=O)CNC(=O)[C@H](CC(C)C)NC(=O)[C@H](CC(C)C)NC(=O)[C@H](Cc1ccc(O)cc1)NC(=O)CNC(=O)[C@H](C)N)C(=O)N[C@H](C(=O)N[C@@H](CC(N)=O)C(=O)N[C@@H](CC(C)C)C(=O)N[C@@H](CCCCN)C(=O)N[C@@H](C)C(=O)N[C@@H](CC(C)C)C(=O)N[C@@H](C)C(=O)N[C@@H](C)C(=O)N[C@@H](CC(C)C)C(=O)N[C@@H](C)C(=O)N[C@@H](CCCCN)C(=O)N[C@@H](CCCCN)C(=O)N[C@H](C(=O)N[C@@H](CC(C)C)C(N)=O)[C@@H](C)CC)[C@@H](C)CC [[Lys^7 (NBnzAc)] TP10]
- MIC P. aeruginosae [2]: >256 µg/mL
- MIC E. coli [3, 5]: >256 µg/mL
- MIC S. aureus [4, 5]: >256 µg/mL
